Assay results from patent US10052320B2, “Substituted quinoxalines as FGFR kinase inhibitors” (ASTEX THERAPEUTICS LIMITED, priority 2011, dated 2018).
Read-outs that look alike come from different tables or passages of the source.

Tests used:
FGFR4 (h) = FGFR4 (h) (Homo sapiens, UniProt P22455); test: FGFR4 (enzymatic assay), TR-FRET; format: biochemical; conditions: read-out: FGFR 4 pIC50 (converted)
Experimental: In a final reaction volume of 30 μL, FGFR4 (h) (60 ng/ml) was incubated with 50 mM HEPES pH 7.5, 6 mM MnCl2, 1 mM DTT, 0.1 mM Na3VO4, 0.01% Triton-X-100, 500 nM Btn-Flt3 and 5 μM ATP in the presence of compound (1% DMSO final). […] Time-Resolved Fluorescence Resonance Energy Transfer (TR-FRET) signal (ex340 nm. Em 620 nm, em 655 nm) was measured afterwards and results are expressed in RFU (Relative Fluorescence Units).

KDR (h) (VEGFR2) = KDR (h) (VEGFR2) (Homo sapiens, UniProt P35968); test: KDR (VEGFR2) (enzymatic assay), TR-FRET; format: biochemical
Sequence of KDR (h) (VEGFR2) (P35968 20-1356): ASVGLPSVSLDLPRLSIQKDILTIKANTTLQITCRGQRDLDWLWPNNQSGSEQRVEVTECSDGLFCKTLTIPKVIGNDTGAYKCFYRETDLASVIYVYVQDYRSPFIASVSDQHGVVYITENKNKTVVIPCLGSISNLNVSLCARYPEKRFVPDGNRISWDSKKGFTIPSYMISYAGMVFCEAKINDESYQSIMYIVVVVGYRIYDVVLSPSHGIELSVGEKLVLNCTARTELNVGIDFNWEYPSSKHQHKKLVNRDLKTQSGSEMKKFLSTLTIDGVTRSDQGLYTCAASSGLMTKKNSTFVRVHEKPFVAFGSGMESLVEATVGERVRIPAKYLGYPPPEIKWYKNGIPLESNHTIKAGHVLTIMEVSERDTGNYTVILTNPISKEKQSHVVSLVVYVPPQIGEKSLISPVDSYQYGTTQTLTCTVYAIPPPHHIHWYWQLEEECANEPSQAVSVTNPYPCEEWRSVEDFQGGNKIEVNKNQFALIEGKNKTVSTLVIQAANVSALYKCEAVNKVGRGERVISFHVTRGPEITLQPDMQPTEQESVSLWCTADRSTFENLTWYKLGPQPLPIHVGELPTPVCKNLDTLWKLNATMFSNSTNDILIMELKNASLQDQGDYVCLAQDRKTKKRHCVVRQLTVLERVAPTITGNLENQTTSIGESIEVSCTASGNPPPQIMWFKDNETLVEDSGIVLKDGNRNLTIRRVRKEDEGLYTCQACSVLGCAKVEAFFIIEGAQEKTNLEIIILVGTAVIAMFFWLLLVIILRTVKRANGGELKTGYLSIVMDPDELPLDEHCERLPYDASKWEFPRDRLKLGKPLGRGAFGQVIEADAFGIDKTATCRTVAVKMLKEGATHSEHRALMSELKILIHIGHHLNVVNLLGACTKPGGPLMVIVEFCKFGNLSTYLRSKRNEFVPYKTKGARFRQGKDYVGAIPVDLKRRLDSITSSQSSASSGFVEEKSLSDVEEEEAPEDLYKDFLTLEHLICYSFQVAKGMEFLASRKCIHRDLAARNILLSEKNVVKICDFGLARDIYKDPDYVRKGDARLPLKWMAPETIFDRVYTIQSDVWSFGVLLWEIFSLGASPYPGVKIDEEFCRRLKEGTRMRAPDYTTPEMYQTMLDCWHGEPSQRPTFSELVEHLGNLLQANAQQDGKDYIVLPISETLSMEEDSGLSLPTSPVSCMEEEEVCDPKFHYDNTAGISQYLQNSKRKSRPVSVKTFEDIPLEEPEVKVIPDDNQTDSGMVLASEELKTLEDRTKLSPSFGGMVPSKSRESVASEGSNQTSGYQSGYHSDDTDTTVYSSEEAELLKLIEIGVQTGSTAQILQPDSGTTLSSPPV
Method in brief: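 Low-ATP (3 μM) TR-FRET kinase assay using 500 nM Btn-Flt3 peptide and 150 ng/ml enzyme, run 2 h at room temperature with 6 mM MnCl2 and 0.1 mM Na3VO4. Signal from Eu-anti-P-Tyr/SA-XL-665 is recorded in RFU.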

[1] = test system: Ba/F3-FGFR1-transfected cells in the presence of 10 ng/ml murine IL3; test: Ba/F3-FGFR1 (plus IL3) cellular proliferation counterscreen, Alamar Blue; format: cell-based; conditions: Mus musculus
Method in brief: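 Proliferation is estimated from Alamar Blue fluorescence after cells grow for one day with test compound in 10% FBS medium at 37 °C, with 4 h dye incubation before reading.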

[2] = biological target: Ba/F3-KDR-transfected cells (Homo sapiens, UniProt P35968); test: Ba/F3-KDR (minus IL3) cellular proliferation assay, Alamar Blue; format: cell-based
Sequence of Ba/F3-KDR-transfected cells (P35968 whole entry, change not shown): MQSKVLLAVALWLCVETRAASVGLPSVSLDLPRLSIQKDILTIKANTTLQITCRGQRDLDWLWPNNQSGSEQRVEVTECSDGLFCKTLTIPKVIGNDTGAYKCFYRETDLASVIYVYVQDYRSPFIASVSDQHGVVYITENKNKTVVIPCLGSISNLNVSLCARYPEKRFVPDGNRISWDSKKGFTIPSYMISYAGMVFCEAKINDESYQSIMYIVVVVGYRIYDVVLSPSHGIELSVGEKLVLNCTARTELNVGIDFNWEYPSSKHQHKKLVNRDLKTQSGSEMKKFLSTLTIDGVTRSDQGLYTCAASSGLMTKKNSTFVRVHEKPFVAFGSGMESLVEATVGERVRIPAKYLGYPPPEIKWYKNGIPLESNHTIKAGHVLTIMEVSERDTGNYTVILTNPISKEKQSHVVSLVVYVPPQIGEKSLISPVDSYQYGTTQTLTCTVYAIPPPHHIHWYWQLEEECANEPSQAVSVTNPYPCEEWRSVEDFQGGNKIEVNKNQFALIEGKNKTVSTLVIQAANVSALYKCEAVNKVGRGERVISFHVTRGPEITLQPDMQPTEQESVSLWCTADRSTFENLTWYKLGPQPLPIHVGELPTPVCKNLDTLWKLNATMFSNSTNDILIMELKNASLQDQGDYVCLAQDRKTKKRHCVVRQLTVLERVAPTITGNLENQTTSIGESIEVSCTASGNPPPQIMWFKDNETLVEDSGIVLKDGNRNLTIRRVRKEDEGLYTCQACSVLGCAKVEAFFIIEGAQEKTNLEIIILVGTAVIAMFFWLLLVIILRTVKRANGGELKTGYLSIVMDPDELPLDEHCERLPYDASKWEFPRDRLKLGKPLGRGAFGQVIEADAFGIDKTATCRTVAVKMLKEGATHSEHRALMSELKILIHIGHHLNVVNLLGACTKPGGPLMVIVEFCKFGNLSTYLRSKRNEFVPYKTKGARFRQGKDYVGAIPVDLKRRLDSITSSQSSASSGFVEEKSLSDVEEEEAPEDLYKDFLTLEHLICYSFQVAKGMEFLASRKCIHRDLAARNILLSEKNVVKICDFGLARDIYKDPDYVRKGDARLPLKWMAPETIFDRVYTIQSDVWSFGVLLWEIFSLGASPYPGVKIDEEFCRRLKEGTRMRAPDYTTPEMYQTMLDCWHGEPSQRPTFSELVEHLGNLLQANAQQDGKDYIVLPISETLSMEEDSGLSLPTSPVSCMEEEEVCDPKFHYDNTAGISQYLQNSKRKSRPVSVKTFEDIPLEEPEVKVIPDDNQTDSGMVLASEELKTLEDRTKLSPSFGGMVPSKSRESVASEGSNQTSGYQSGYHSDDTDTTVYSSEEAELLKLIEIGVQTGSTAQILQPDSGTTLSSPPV
Method in brief: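 Measured with and without 10 ng/ml murine IL3: Ba/F3-KDR cells treated 24 h with compound, then 4 h Alamar Blue, fluorescence read at 540/590 nm.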

[3] = plus IL3, 384 well, read-out: BAF3-FGFR 1 (PLUS IL3) 384 well pIC50 (converted)
[4] = plus IL3, 96 well, read-out: BAF3-FGFR 1 (PLUS IL3) 96 well pIC50 (converted)

Sequence of FGFR4 (h) (P22455 22-802): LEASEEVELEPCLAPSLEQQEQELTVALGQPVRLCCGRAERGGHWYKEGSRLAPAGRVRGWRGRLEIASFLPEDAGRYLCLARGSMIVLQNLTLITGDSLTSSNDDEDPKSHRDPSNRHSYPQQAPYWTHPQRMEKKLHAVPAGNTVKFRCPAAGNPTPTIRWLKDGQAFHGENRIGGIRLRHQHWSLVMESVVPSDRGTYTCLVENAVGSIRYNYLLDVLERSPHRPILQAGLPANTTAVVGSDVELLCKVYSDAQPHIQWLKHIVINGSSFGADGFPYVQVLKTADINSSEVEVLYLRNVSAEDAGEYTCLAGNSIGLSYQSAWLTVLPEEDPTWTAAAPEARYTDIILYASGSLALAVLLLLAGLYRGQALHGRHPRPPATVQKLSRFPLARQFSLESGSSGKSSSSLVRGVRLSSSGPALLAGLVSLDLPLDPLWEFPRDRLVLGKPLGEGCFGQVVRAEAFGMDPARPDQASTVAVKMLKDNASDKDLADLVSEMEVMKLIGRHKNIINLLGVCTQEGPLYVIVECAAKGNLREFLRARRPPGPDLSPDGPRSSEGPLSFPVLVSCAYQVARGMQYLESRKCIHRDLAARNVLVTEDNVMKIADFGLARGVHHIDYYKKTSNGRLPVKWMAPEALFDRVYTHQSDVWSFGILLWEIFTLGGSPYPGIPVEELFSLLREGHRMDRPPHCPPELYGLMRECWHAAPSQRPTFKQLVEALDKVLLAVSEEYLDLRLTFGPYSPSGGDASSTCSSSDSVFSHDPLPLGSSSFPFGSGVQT

| IC50 (FGFR4 (h)) | IC50 (KDR (h) (VEGFR2)) | BAF3-KDR (MIN IL3) 384 well pIC50 ([2]; minus IL3) | BAF3-KDR (MIN IL3) 384 well pIC50 ([2]; minus IL3, 384 well) | SMILES | IC50 [1, 3] | IC50 [1, 4] |
| --- | --- | --- | --- | --- | --- | --- |
| > 1000 nM | > 1000 nM | <5 | – | COc1cc(OC)cc(N(CCNC(C)C)c2ccc3ncc(C(=O)N4CCOCC4)nc3c2)c1 [Compound 181] | > 10000 nM | – |
| 67.6 nM | 229 nM | 5.11 | – | COc1cc(OC)cc(N(CCN2CCOCC2)c2ccc3ncc(-c4ccc(NC(=O)N5CCOCC5)nc4)nc3c2)c1 [Compound 35] | > 10000 nM | – |
| 145 nM | 2950 nM | <5 | – | COc1cc(OC)cc(N(CC2CC2)c2ccc3ncc(-c4c[nH]cn4)nc3c2)c1 [Compound 39] | > 10000 nM | – |
| 331 nM | 617 nM | <5 | – | COc1cc(OC)cc(N(CCNC(C)C)c2ccc3ncc(NCC4CCNCC4)nc3c2)c1 [Compound 161] | > 10000 nM | – |
| 282 nM | 229 nM | <5 | – | COc1cc(OC)cc(N(CCN2CCN(C(C)=O)CC2)c2ccc3ncc(-c4ccc(N)nc4)nc3c2)c1 [Compound 68] | > 10000 nM | – |
| 417 nM | > 1000 nM | <5 | – | COC(=O)C1CCCN1c1cnc2ccc(N(CCO)c3cc(OC)cc(OC)c3)cc2n1 (stereo not drawn) [Compound 172] | > 10000 nM | – |
| > 1000 nM | > 1000 nM | <5 | – | COc1cc(OC)cc(N(CCO)c2ccc3ncc(C4CCN(C(=O)OC(C)(C)C)CC4)nc3c2)c1 [Compound 185] | > 10000 nM | – |
| 309 nM | > 1000 nM | <5 | – | COc1cc(OC)cc(N(CCNC(C)C)c2ccc3ncc(C(=O)NCCN4CCOCC4)nc3c2)c1 [Compound 160] | > 10000 nM | – |
| 407 nM | > 1000 nM | <5 | – | COCC(CN(c1cc(OC)cc(OC)c1)c1ccc2ncc(-c3cccnc3)nc2c1)OC(C)=O (single isomer, unassigned) [Compound 52] | > 10000 nM | – |
| 7.24 nM | 126 nM | 5.14 | – | COc1cc(OC)cc(N(CCNC(C)C)c2ccc3ncc(-c4ccn[nH]4)nc3c2)c1 [Compound 189] | > 10000 nM | – |
| 468 nM | > 1000 nM | <5 | – | COc1cc(OC)cc(N(CCCNCC(F)(F)F)c2ccc3ncc(-c4ccnc(F)c4)nc3c2)c1 [Compound 144] | > 10000 nM | – |
| 234 nM | > 1000 nM | <5 | – | CO/N=C(\C)c1cnc2ccc(N(CCO)c3cc(OC)cc(OC)c3)cc2n1 [Compound 29] | > 10000 nM | – |
| 166 nM | > 1000 nM | <5 | – | COc1cc(OC)cc(N(CCCO)c2ccc3ncc(-c4cccnc4F)nc3c2)c1 [Compound 149] | > 10000 nM | – |
| 302 nM | 1380 nM | – | <5 | COc1cc(OC)cc(N(CC2CC2)c2ccc3ncc(-c4ccnc(N5CCN(C)CC5)c4)nc3c2)c1 [Compound 37] | > 10000 nM | 7590 nM |
| > 10000 nM | > 10000 nM | <5 | – | COc1cc(OC)cc(N(CC2CC2)c2ccc3ncc(NC(=O)c4ccc(F)cc4)nc3c2)c1 [Compound 28] | > 10000 nM | > 10000 nM |
| > 1000 nM | 77.6 nM | <5 | – | COc1cc(OC)cc(N(CCNC(C)C)c2ccc3ncc(C(=O)N4CCN(C)CC4)nc3c2)c1 [Compound 179] | > 10000 nM | – |
| 87.1 nM | 363 nM | <5 | – | CNc1ccc(-c2cnc3ccc(N(CCCNCC(F)(F)F)c4cc(OC)cc(OC)c4)cc3n2)cn1 [Compound 129] | > 10000 nM | – |
| 64.6 nM | 347 nM | <5 | – | COc1cc(OC)cc(N(CCCO)c2ccc3ncc(-c4ccnc(F)c4)nc3c2)c1 [Compound 142] | > 10000 nM | – |
| 309 nM | > 1000 nM | <5 | – | COc1cc(OC)cc(N(CCO)c2ccc3ncc(C(=O)Nc4cnn(C)c4)nc3c2)c1 [Compound 184] | > 10000 nM | – |
| 2880 nM | 5500 nM | – | <5 | COc1cc(OC)cc(N(CC2CC2)c2ccc3ncc(N4CCN(C)CC4)nc3c2)c1 [Compound 64] | > 10000 nM | – |
| 200 nM | 447 nM | 5 | – | COc1cc(OC)cc(N(CCNC(C)C)c2ccc3ncc(N4CCC(CN)CC4)nc3c2)c1 [Compound 67] | 8510 nM | – |
| 9.55 nM | 52.5 nM | 5.33 | – | COc1cc(OC)cc(N(CCCNC(C)C)c2ccc3ncc(-c4ccnc(N)c4)nc3c2)c1 [Compound 143] | 5620 nM | – |
